# Source: patent US8637525B2, “Compounds for the reduction of beta-amyloid production” (Bristol-Myers Squibb Company, priority 2009, dated 2014)
# Where a name gives a salt, the structure may show the parent alone.
# Tested on: Aβ1-42 production
# Assay: Cellular assay for inhibition of Aβ1-42 production (H4 APP751 SWE clone 8.20)
# Type: cell-based
# Details: 19 h, H4 APP751 SWE clone 8.20 cells, 19 h incubation; class symbols; read-out: Activity Rating (Aβ42 cellular IC50)
# How it was run: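 Aβ42 read by time-resolved FRET using neoepitope antibody 565 (0.8 ng/well) paired with N-terminal 26D6 (75 ng/well), incubated overnight at 4 °C, then IC50 curve fitting. Cells: H4 APP751 Swedish clone 8.20, exposed to compound for 19 h at 37 °C.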
row,SMILES,IC50 [nM]
1,"COc1cc(Nc2nc3c(c(N4CC(F)(F)C4)n2)CCC3c2ccc(F)cc2)ccc1-n1cnc(Cl)n1 (racemic) [Example 17, N-(4-(3-chloro-1H-1,2,4-triazol-1-yl)-3-methoxyphenyl)-4-(3,3-difluoroazetidin-1-yl)-7-(4-fluorophenyl)-6,7-dihydro-5H-cyclopenta[d]pyrimidin-2-amine]",10 to 100
2,"CNc1nc(Nc2ccc(-n3cnc(Cl)c3)c(OC)c2)nc2c1COCC2c1ccc(OC(F)(F)F)cc1 (stereo not drawn) [Example 122A, N2-(4-(4-chloro-1H-imidazol-1-yl)-3-methoxyphenyl)-N4-methyl-8-(4-(trifluoromethoxy)phenyl)-7,8-dihydro-5H-pyrano[4,3-d]pyrimidine-2,4-diamine]",1.5 to 9.9
3,"CNc1nc(Nc2ccc3nc(C)oc3c2)nc2c1CCC2c1ccccc1 (stereo not drawn) [Example 252, N4-methyl-N2-(2-methylbenzo[d]oxazol-6-yl)-7-phenyl-6,7-dihydro-5H-cyclopenta[d]pyrimidine-2,4-diamine]",> 1000
4,"CNc1nc(Nc2ccc(-n3cnc(C)n3)c(OC)c2)nc2c1CCC2c1ccc(F)cc1F (stereo not drawn) [Example 193, 7-(2,4-difluorophenyl)-N2-(3-methoxy-4-(3-methyl-1H-1,2,4-triazol-1-yl)phenyl)-N4-methyl-6,7-dihydro-5H-cyclopenta[d]pyrimidine-2,4-diamine]",10 to 100
5,"CNc1nc(Nc2ccc(C3(C#N)CC3)cc2)nc2c1CCC2c1ccccc1 (stereo not drawn) [Example 247, 1-(4-(4-(methylamino)-7-phenyl-6,7-dihydro-5H-cyclopenta[d]pyrimidin-2-ylamino)phenyl)cyclopropanecarbonitrile]",100 to 1000
6,"CNc1nc(Nc2ccc(-n3cnc(Cl)n3)c(OC)c2)nc2c1CCC2c1cc(F)c(F)c(F)c1 (stereo not drawn) [Example 106, N^2-(4-(3-chloro-1H-1,2,4-triazol-1-yl)-3-methoxyphenyl)-N^4-methyl-7-(3,4,5-trifluorophenyl)-6,7-dihydro-5H-cyclopenta[d]pyrimidine-2,4-diamine]",10 to 100
7,"CNc1nc(Nc2ccc(-n3cnc(C)n3)c(OC)c2)nc2c1CC[C@H]2c1ccccc1Cl (single isomer, unassigned) [Example 268A]",1.5 to 9.9
8,"CCN(C)c1nc(Nc2ccc(-n3cnc(Cl)c3)c(OC)c2)nc2c1CN(C)CC2c1ccc(F)cc1 (stereo not drawn) [Example 165, N2-(4-(4-chloro-1H-imidazol-1-yl)-3-methoxyphenyl)-N4-ethyl-8-(4-fluorophenyl)-N4,6-dimethyl-5,6,7,8-tetrahydropyrido[4,3-d]pyrimidine-2,4-diamine]",10 to 100
9,"CCNc1nc(Nc2ccc(-n3ncnc3C)c(F)c2)nc2c1CN(C)CC2c1ccccc1 (stereo not drawn) [Example 153, N4-ethyl-N2-(3-fluoro-4-(5-methyl-1H-1,2,4-triazol-1-yl)phenyl)-6-methyl-8-phenyl-5,6,7,8-tetrahydropyrido[4,3-d]pyrimidine-2,4-diamine]",10 to 100
10,"CCNc1nc(Nc2ccc(-n3cnc(Cl)c3)c(OC)c2)nc2c1COCC2c1cc(F)cc(F)c1 (racemic) [Example 112, N2-(4-(4-chloro-1H-imidazol-1-yl)-3-methoxyphenyl)-8-(3,5-difluorophenyl)-N4-ethyl-7,8-dihydro-5H-pyrano[4,3-d]pyrimidine-2,4-diamine, TFA]",1.5 to 9.9
11,"CNc1nc(Nc2ccc(C#N)cc2)nc2c1CCC2c1ccccc1 (stereo not drawn) [Example 226, 4-(4-(methylamino)-7-phenyl-6,7-dihydro-5H-cyclopenta[d]pyrimidin-2-ylamino)benzonitrile]",100 to 1000

# Same assay, conditions: 19 h, H4 APP751 SWE clone 8.20 cells, 19 h incubation; read-out: Activity Rating (Aβ42 cellular IC50), numeric value
row,SMILES,IC50 [nM]
1,"CNc1nc(Nc2ccc(Br)c(OC)c2)nc2c1CCC2c1ccccc1 (stereo not drawn) [Example 256, N2-(4-bromo-3-methoxyphenyl)-N4-methyl-7-phenyl-6,7-dihydro-5H-cyclopenta[d]pyrimidine-2,4-diamine]",97

# Same assay, conditions: H4 APP751 SWE clone 8.20 cells, 19 h incubation; class symbols; read-out: Activity Rating (Aβ42 cellular IC50)
row,SMILES,IC50 [nM]
1,"CCNc1nc(Nc2ccc(-n3cnc(Cl)c3)c(OC)c2)nc2c1COCC2c1ccc(F)c(F)c1 (stereo not drawn) [Example 113A, N2-(4-(4-chloro-1H-imidazol-1-yl)-3-methoxyphenyl)-8-(3,4-difluorophenyl)-N4-ethyl-7,8-dihydro-5H-pyrano[4,3-d]pyrimidine-2,4-diamine]",1.5 to 9.9
2,"COc1cc(Nc2nc3c(c(N4CCC(F)C4)n2)CCOC3c2ccc(F)cc2)ccc1-n1cnc(Cl)c1 (stereo in doubt) [Example 91A, N-(4-(4-chloro-1H-imidazol-1-yl)-3-methoxyphenyl)-8-(4-fluorophenyl)-4-((S)-3-fluoropyrrolidin-1-yl)-6,8-dihydro-5H-pyrano[3,4-d]pyrimidin-2-amine]",1.5 to 9.9
3,"CNc1nc(Nc2ccc(-n3cnc(Cl)c3)c(OC)c2)nc2c1COCC2c1ccccc1 (single isomer, unassigned) [Example 51B, N^2-(4-(4-chloro-1H-imidazol-1-yl)-3-methoxyphenyl)-N^4-methyl-8-phenyl-7,8-dihydro-5H-pyrano[4,3-d]pyrimidine-2,4-diamine]",1.5 to 9.9
4,"CCC1CCCN1c1nc(Nc2ccc(-n3cnc(Cl)c3)c(OC)c2)nc2c1CCC2c1ccc(F)cc1 (single isomer, unassigned) [Example 24A, N-(4-(4-chloro-1H-imidazol-1-yl)-3-methoxyphenyl)-4-(2-ethylpyrrolidin-1-yl)-7-(4-fluorophenyl)-6,7-dihydro-5H-cyclopenta[d]pyrimidin-2-amine]",10 to 100
5,"CCC1CCCN1c1nc(Nc2ccc(-n3cnc(Cl)c3)c(OC)c2)nc2c1CCC2c1ccc(F)cc1 (single isomer, unassigned) [Example 23, N-(4-(4-chloro-1H-imidazol-1-yl)-3-methoxyphenyl)-4-(2-ethylpyrrolidin-1-yl)-7-(4-fluorophenyl)-6,7-dihydro-5H-cyclopenta[d]pyrimidin-2-amine]",10 to 100
6,"COc1cc(Nc2nc3c(c(N4CCC(F)(F)C4)n2)CCC3c2cc(F)c(F)c(F)c2)ccc1-n1cnc(Cl)c1 (single isomer, unassigned) [Example 107B, N-(4-(4-chloro-1H-imidazol-1-yl)-3-methoxyphenyl)-4-(3,3-difluoropyrrolidin-1-yl)-7-(3,4,5-trifluorophenyl)-6,7-dihydro-5H-cyclopenta[d]pyrimidin-2-amine]",100 to 1000
7,"CCN(C)c1nc(Nc2ccc(-n3cnc(Cl)c3)c(OC)c2)nc2c1COCC2c1ccccc1 (single isomer, unassigned) [Example 52A, N^2-(4-(4-Chloro-1H-imidazol-1-yl)-3-methoxyphenyl)-N^4-ethyl-N^4-methyl-8-phenyl-7,8-dihydro-5H-pyrano[4,3-d]pyrimidine-2,4-diamine]",1.5 to 9.9
8,"CCNc1nc(Nc2ccc(-n3cnc(Cl)c3)c(OC)c2)nc2c1COCC2c1ccc(C(F)(F)F)cc1 (stereo not drawn) [Example 118B, N2-(4-(4-chloro-1H-imidazol-1-yl)-3-methoxyphenyl)-N4-ethyl-8-(4-(trifluoromethyl)phenyl)-7,8-dihydro-5H-pyrano[4,3-d]pyrimidine-2,4-diamine]",100 to 1000
9,"CCNc1nc(Nc2ccc(-n3cnc(Cl)c3)c(OC)c2)nc2c1CCC2(C)c1ccccc1 (stereo not drawn) [Example 110B, N2-(4-(4-chloro-1H-imidazol-1-yl)-3-methoxyphenyl)-N4-ethyl-7-methyl-7-phenyl-6,7-dihydro-5H-cyclopenta[d]pyrimidine-2,4-diamine]",10 to 100
